The results in this text go back to ChEMBL document CHEMBL1208782, “Synthesis and pharmacological validation of a novel series of non-steroidal FXR agonists” (Bioorg Med Chem Lett, 2010).

The structures appear in SMILES notation.

Format in all cases: functional, cell-based
The target of series [1] is T1, Retinoic acid receptor beta (Homo sapiens, UniProt P10826).
T1 sequence (P10826 whole entry): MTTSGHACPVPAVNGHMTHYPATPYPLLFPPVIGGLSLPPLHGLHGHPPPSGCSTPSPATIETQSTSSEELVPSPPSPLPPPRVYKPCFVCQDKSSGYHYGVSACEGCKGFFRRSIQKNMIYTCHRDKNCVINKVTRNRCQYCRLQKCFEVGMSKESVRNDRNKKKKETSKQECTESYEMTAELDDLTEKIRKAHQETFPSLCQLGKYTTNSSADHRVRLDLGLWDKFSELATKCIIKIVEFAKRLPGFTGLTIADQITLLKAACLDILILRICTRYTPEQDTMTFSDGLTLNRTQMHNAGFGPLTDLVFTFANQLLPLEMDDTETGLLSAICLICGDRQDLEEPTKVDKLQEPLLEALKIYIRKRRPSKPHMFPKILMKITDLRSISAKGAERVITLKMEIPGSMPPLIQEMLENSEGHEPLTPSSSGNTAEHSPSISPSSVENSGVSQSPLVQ
As to the kind of experiment: Agonist activity at RARbeta-LBD expressed in HEK293 cells assessed as Gal4-DBD interaction by cellular mammalian one hybrid assay.

Another series addresses Estrogen receptor beta (Homo sapiens, UniProt Q92731). Description: Agonist activity at ERbeta-LBD expressed in HEK293 cells assessed as Gal4-DBD interaction by cellular mammalian one hybrid assay relative to estradiol.
In series [2] the target is T2, Glucocorticoid receptor (Homo sapiens) (UniProt P04150).
T2 sequence (whole entry): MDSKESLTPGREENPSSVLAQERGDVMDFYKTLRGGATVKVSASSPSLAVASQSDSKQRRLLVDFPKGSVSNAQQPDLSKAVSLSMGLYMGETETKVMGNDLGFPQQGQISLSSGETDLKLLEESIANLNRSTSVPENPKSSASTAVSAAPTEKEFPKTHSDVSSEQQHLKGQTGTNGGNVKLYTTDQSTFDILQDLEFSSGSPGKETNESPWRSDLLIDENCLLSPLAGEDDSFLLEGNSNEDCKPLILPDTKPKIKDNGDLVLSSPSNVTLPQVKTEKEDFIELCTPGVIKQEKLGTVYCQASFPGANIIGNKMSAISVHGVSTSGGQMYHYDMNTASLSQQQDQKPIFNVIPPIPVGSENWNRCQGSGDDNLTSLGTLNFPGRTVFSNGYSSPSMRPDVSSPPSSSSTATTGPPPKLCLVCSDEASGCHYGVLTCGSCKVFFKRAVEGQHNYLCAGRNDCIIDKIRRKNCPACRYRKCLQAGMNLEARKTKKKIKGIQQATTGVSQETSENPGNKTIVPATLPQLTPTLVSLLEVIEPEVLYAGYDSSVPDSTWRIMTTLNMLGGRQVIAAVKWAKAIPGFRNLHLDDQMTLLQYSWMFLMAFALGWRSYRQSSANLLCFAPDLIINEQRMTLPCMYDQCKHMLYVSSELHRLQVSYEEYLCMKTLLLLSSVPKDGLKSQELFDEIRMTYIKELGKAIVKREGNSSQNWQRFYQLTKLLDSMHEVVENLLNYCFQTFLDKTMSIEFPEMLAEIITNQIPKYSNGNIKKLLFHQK
As to the kind of experiment: Agonist activity at GR-LBD expressed in HEK293 cells assessed as Gal4-DBD interaction by cellular mammalian one hybrid assay relative to glucocorticoid.

Series [3] deals with T3, Vitamin D3 receptor (Homo sapiens) (UniProt P11473).
T3 sequence (whole entry): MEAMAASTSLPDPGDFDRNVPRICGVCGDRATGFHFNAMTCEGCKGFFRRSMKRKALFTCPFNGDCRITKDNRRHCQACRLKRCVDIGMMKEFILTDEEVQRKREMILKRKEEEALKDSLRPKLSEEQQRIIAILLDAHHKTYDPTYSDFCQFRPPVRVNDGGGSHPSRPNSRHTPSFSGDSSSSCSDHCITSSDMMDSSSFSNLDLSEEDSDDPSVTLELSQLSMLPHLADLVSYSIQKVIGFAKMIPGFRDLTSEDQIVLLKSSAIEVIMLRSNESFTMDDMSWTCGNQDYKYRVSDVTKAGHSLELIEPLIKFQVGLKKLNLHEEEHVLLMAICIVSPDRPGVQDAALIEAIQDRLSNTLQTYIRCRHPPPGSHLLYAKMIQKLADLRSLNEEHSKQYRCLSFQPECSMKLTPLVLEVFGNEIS
As to the kind of experiment: Agonist activity at VDR-LBD expressed in HEK293 cells assessed as Gal4-DBD interaction by cellular mammalian one hybrid assay relative to vitamin D.

For series [4], the target named is T4, PXR (nuclear receptor subfamily 1 group I member 2) (Homo sapiens, UniProt O75469).
T4 sequence (O75469 whole entry): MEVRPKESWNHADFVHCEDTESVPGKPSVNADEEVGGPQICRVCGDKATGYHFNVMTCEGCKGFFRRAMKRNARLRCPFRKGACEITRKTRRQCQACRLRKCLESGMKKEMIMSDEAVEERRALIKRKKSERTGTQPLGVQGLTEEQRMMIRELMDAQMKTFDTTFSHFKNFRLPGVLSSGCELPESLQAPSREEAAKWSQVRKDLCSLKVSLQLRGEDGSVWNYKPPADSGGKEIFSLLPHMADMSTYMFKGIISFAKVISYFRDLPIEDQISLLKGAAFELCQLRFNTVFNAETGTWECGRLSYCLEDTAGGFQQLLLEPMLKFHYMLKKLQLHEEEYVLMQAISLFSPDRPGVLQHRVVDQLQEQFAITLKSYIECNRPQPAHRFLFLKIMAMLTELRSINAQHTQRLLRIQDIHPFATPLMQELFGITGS
As to the kind of experiment: Agonist activity at PXR-LBD expressed in HEK293 cells assessed as Gal4-DBD interaction by cellular mammalian one hybrid assay relative to SR-12813. As to conditions: HEK293 cells expressing PXR-LBD, read-out: Efficacy.

Series [5] has as its target T5, Thyroid hormone receptor alpha (Homo sapiens, UniProt P10827).
T5 sequence (P10827 whole entry): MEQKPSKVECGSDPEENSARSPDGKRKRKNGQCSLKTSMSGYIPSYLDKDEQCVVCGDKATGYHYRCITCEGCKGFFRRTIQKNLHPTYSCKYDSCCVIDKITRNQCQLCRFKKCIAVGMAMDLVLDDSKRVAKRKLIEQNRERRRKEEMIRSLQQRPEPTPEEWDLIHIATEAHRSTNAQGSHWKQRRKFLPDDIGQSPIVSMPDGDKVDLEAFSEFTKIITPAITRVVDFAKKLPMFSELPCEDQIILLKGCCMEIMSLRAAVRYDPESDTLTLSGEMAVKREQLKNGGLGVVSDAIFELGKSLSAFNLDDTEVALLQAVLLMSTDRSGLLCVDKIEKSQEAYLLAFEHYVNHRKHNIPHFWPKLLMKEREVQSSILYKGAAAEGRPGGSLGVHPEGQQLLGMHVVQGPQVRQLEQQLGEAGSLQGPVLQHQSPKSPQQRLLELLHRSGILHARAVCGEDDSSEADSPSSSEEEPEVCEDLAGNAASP
Description: Agonist activity at TRalpha-LBD expressed in HEK293 cells assessed as Gal4-DBD interaction by cellular mammalian one hybrid assay.

Estrogen receptor beta, sequence (Q92731 whole entry, the tested form may be a part): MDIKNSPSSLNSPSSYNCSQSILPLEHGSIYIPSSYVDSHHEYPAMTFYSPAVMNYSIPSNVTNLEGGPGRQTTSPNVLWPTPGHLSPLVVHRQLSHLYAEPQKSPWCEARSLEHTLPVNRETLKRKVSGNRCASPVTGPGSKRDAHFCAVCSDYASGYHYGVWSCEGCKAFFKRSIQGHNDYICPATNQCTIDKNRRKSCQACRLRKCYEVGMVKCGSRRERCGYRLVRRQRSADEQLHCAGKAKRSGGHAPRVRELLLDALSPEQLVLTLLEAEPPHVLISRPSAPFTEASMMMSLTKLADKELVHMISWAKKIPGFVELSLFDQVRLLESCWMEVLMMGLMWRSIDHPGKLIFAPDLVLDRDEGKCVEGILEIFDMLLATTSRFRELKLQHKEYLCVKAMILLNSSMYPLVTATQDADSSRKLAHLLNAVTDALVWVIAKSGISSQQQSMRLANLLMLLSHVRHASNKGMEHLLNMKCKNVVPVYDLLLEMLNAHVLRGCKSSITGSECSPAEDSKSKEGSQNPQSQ

For `CC(C)c1onc(-c2c(Cl)cccc2Cl)c1COc1ccc(N(C)Cc2ccc(C(=O)O)cc2)c(C(F)(F)F)n1`, the EC50 in series [1] and in series [5] was above 10 µM each time. The Efficacy (at Estrogen receptor beta; in series [2]; in series [3]) was 0% in each case. In addition, the Emax in series [4] amounted to 60%.
`CN(Cc1cccc(C(=O)O)c1)c1ccc(OCc2c(-c3c(Cl)cccc3Cl)noc2C2CC2)nc1C(F)(F)F`: the EC50 in series [1] and in series [5] was above 10 µM in each case. The Efficacy on Estrogen receptor beta is 20%; in series [2], 0%; in series [3], 0%. Further, in series [4], the Emax was 62%.
In the case of `CN(Cc1ccc(C(=O)O)cc1)c1ccc(OCc2c(-c3c(Cl)cccc3Cl)noc2C2CC2)nc1C(F)(F)F`, the EC50 in series [1] and in series [5] was above 10 µM each time. Moreover, the Efficacy (at Estrogen receptor beta; in series [2]; in series [3]) was 0% throughout. Moreover, in series [4], the Emax was found to be 67%.

By EC50 is commonly meant the concentration needed to bring the measured effect to its halfway point.
